Results taken from article PMC12722308, “A phase 1 study of orally administered 5-fluoro-2’-deoxycytidine with tetrahydrouridine in patients with refractory solid tumors” (Cancer Chemotherapy and Pharmacology, 2025).

What was measured:
[1] = test system: p16-expressing cytokeratin-positive (CK+) CTCs; experiment: CellSearch analysis of CTC p16 expression, CK+ CTCs; format: in vivo, human; details: 23 of 30 evaluable patients; oral FdCyd + THU
Experimental: (§1) Each blood specimen for CTC analysis (7.5 mL) was collected into a 10-mL CellSave preservative tube (Menarini Silicon Biosystems). Specimens were collected pre-treatment and then 6 h after THU administration on C1D1; prior to THU administration on […] and either C1D8 or […] (at the end of the first round of drug administration); on day 1 of cycle 2 and all subsequent cycles; and optionally at time of progression. Blood sample collection for CTC analysis was performed relative to the morning dose of THU for patients on the BID dose levels (DL10-11). CTC samples were processed and analyzed for p16, cytokeratin, and vimentin as described previously. Serial baseline blood specimens (C1D1 pre, C1D1 post, and […]) were obtained in light of baseline variability in CTC counts and p16 expression, and patients were considered assessable for cytokeratin-positive (CK^+) CTC p16 response if at least one of these baseline specimens (i.e., C1D1 pre, C1D1 post, and/or […]) and at least one post-treatment specimen (collected C2D1 or later) each contained ≥ 6 CTCs, as described. For patients with multiple baseline specimens, the specimen with the highest frequency of p16-positive CTCs was considered “baseline,” as described.

[2] = test system: p16-expressing vimentin-positive (V+) CTCs; experiment: CellSearch analysis of CTC p16 expression, V+ CTCs; format: in vivo, human; details: 2 of the 22 evaluable patients; oral FdCyd + THU
Experimental: as §1

[3] = test system: p16-expressing vimentin-positive (V+) CTCs; design: method as in PMID 32314030; details: intravenously administered FdCyd; 6 of 12; cited from earlier work
[4] = Urinary excretion by LC-MS/MS; format: in vivo, human
Experimental: Blood specimens for PK analysis were collected on Cycle 1 Day 1 (C1D1) prior to THU administration and then at 15, 30, and 45 min and 1, 2, 3, 4, 5, and 6 h after THU administration, as well as on C1D2 and C1D3 prior to and 2 h after THU administration. Urine specimens for PK analysis were collected on C1D1 prior to treatment and then at every void from 0 to 24 h after THU administration. All specimens for PK analysis were processed and analyzed by LC-MS/MS as described previously, and Phoenix WinNonlin software was used for data analysis.

[5] = test system: CDKN2A; experiment: Tumor CDKN2A promoter methylation from genome-wide methylation sequencing; format: in vivo, human; details: of 6 expansion cohort patients with both CDKN2A and p16 IHC data
Experimental: Tumor biopsy cores collected at baseline and C1W3 underwent nucleic acid extraction using the Qiagen AllPrep FFPE Nucleic acid Extraction kit and QiaCube automated platform. Extractions were performed on 1–2 biopsy cores per patient per time point; for specimens with low tumor content, tumor microdissection was performed prior to extraction. Genome-wide DNA methylation sequencing on the isolated DNA was performed by Zymo Research using Methyl-MiniSeq Genome-Wide Bisulfite Sequencing methodology. Sequence reads from bisulfite-treated Classic RRBS libraries were identified using standard Illumina base calling software. Raw FASTQ files were trimmed of adapter, filled-in nucleotides, and low-quality base calls using TrimGalore 0.6.4. […] Methylated and unmethylated read totals for each CpG site were called using Bismark Methylation Extractor. The methylation level of each sampled cytosine was estimated as the number of reads reporting a C, divided by the total number of reads reporting a C or T.
All statistical analyses were performed in R. Differentially methylated CpG sites (DMCs)—both hypo- and hyper-methylated—were identified with the R package DSS [14] using the two-sided Wald test for beta-binomial distributions with smoothing step as recommended. […] Regions with many significant DMCs were detected as differentially methylated regions (DMRs) using DSS function callDMR. […]

## Nc1nc(=O)n([C@H]2C[C@H](O)[C@@H](CO)O2)cc1F [FdCyd, 5-fluoro-2’-deoxycytidine]
[1]
  Patients with a treatment-associated increase in the proportion of p16+CK+ CTCs: 77%
[2]
  Patients with increases in the proportion of p16-expressing V+ CTCs: 9%
[3]
  Patients with increases in p16-expressing V+ CTCs: 50%
[4]; All FdCyd doses + THU 3000 mg, N=6, geom. mean (geom. SD)
  FdCyd urinary excretion over 0-24 hours of day 1: 0.083 (2.2) % dose
[4]; All FdCyd doses + THU 6000 mg, N=3, geom. mean (geom. SD)
  FdCyd urinary excretion over 0-24 hours of day 1: 0.11 (2.6) % dose
[4]; DL5-9: FdCyd 160 mg + THU 3000 mg, N=6, geom. mean (geom. SD)
  FdCyd urinary excretion over 0-24 hours of day 1: 0.083 (2.2) % dose
[4]; DL10: FdCyd 60 mg + THU 6000 mg, N=2, geom. mean (geom. SD)
  FdCyd urinary excretion over 0-24 hours of day 1: 0.15 (3.2) % dose
[4]; DL11: FdCyd 80 mg + THU 6000 mg, N=1
  FdCyd urinary excretion over 0-24 hours of day 1: 0.058 (-) % dose
[5]
  Patients with treatment-associated decreases in tumor CDKN2A methylation: Five
